# Laboratory results as given in the kinase profiling compilation of Christmann-Franck et al. (2016).
# Experiments:
# Experiment in all cases: radiometric filter-binding kinase assay, Kinase HotSpot
# Settings in all cases: compound 0.5 µM; ATP 10 µM
# [1] = biological target: CSF1R (human) (UniProt P07333)
# [2] = biological target: EPHA1 (human) (UniProt P21709)
# [3] = biological target: MST1R (human) (UniProt Q04912)
# [4] = biological target: GRK7 (human) (UniProt Q8WTQ7)
# [5] = biological target: STK39 (human) (UniProt Q9UEW8)
# [6] = biological target: EPHA3 (human) (UniProt P29320)
# [7] = biological target: ALK (human) (UniProt Q9UM73)
# [8] = biological target: SRC (human) (UniProt P12931)
# [9] = biological target: OXSR1 (human) (UniProt O95747)
# [10] = biological target: DYRK3 (human) (UniProt O43781)
# [11] = biological target: ROS1 (human) (UniProt P08922)
# [12] = biological target: CAMK4 (human) (UniProt Q16566)
# [13] = biological target: HIPK2 (human) (UniProt Q9H2X6)
# [14] = biological target: MAP4K5 (human) (UniProt Q9Y4K4)
# [15] = biological target: RPS6KA6 KD1 KD2 (human) (UniProt Q9UK32)
# [16] = biological target: MAPKAPK5 (human) (UniProt Q8IW41)
# [17] = biological target: MINK1 (human) (UniProt Q8N4C8)
# [18] = biological target: TSSK1B (human) (UniProt Q9BXA7)
# [19] = biological target: AKT1 (human) (UniProt P31749)
# [20] = biological target: TEC (human) (UniProt P42680)
# [21] = biological target: TAOK1 (human) (UniProt Q7L7X3)
# [22] = biological target: LCK (human) (UniProt P06239)
# [23] = biological target: STK33 (human) (UniProt Q9BYT3)
# [24] = biological target: PRKCZ (human) (UniProt Q05513)
# [25] = biological target: MARK1 (human) (UniProt Q9P0L2)
# [26] = biological target: PAK4 (human) (UniProt O96013)
# [27] = biological target: FLT1 (human) (UniProt P17948)
# [28] = biological target: GSG2 (human) (UniProt Q8TF76)
# [29] = biological target: MAPKAPK3 (human) (UniProt Q16644)
# [30] = biological target: NEK9 (human) (UniProt Q8TD19)
# [31] = biological target: CDK4 CCND3 (human) (UniProt P30281+P11802)
# [32] = biological target: TAOK2 (human) (UniProt Q9UL54)
# [33] = biological target: GSK3A (human) (UniProt P49840)
# [34] = biological target: EPHA7 (human) (UniProt Q15375)
# [35] = biological target: PHKG1 (human) (UniProt Q16816)
# [36] = biological target: PKN2 (human) (UniProt Q16513)
# [37] = biological target: ZAP70 (human) (UniProt P43403)
# [38] = biological target: NLK (human) (UniProt Q9UBE8)
# [39] = biological target: MUSK (human) (UniProt O15146)
# [40] = biological target: FRK (human) (UniProt P42685)
# [41] = biological target: ACVRL1 (human) (UniProt P37023)
# Chain of CAMK4 (human) (Q16566 whole entry, looked up): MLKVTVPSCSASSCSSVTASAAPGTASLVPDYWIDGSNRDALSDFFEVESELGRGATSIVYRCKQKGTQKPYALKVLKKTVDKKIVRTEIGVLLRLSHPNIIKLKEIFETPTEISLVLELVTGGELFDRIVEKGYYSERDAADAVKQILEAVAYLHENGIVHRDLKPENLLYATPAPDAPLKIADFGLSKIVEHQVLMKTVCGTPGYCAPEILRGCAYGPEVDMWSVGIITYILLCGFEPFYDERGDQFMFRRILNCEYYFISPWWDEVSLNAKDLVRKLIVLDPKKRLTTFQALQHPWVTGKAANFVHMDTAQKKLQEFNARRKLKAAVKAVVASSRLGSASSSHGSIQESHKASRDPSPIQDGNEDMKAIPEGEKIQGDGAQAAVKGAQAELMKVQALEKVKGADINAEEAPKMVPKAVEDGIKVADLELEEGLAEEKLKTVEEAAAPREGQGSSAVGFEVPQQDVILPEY
# Chain of TAOK2 (human) (Q9UL54 whole entry, looked up): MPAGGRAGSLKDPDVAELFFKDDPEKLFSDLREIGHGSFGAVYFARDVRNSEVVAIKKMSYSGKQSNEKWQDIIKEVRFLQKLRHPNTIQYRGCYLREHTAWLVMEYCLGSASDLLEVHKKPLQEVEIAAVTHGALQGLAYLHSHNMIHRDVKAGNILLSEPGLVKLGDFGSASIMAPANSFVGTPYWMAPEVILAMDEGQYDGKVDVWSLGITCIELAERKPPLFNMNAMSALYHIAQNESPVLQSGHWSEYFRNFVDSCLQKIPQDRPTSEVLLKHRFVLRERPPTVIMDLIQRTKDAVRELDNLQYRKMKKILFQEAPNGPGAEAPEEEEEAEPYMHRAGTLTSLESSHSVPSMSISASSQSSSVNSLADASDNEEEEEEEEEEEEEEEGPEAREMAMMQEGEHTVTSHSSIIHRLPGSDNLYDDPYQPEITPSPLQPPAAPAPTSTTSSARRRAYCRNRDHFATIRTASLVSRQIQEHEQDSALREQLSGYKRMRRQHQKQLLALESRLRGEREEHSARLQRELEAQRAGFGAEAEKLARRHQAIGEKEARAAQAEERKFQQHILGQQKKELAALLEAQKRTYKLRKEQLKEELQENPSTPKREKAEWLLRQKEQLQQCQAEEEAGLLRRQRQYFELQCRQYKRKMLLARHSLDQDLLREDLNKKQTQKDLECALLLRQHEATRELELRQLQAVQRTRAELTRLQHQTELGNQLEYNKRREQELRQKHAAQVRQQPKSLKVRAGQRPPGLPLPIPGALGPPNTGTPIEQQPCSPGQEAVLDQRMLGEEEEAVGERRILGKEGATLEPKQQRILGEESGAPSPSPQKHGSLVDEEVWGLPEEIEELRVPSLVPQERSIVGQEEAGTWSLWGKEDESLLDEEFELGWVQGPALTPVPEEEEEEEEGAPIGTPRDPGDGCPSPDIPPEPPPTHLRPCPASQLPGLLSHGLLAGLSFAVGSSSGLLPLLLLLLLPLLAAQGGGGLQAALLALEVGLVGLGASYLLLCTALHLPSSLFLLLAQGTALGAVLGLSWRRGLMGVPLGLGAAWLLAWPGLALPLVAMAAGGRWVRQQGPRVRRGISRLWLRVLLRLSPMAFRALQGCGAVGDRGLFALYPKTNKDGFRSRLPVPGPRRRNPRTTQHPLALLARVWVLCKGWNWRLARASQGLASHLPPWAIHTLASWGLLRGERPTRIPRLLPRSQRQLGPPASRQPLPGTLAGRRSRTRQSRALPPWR
# Chain of TAOK1 (human) (Q7L7X3 whole entry, looked up): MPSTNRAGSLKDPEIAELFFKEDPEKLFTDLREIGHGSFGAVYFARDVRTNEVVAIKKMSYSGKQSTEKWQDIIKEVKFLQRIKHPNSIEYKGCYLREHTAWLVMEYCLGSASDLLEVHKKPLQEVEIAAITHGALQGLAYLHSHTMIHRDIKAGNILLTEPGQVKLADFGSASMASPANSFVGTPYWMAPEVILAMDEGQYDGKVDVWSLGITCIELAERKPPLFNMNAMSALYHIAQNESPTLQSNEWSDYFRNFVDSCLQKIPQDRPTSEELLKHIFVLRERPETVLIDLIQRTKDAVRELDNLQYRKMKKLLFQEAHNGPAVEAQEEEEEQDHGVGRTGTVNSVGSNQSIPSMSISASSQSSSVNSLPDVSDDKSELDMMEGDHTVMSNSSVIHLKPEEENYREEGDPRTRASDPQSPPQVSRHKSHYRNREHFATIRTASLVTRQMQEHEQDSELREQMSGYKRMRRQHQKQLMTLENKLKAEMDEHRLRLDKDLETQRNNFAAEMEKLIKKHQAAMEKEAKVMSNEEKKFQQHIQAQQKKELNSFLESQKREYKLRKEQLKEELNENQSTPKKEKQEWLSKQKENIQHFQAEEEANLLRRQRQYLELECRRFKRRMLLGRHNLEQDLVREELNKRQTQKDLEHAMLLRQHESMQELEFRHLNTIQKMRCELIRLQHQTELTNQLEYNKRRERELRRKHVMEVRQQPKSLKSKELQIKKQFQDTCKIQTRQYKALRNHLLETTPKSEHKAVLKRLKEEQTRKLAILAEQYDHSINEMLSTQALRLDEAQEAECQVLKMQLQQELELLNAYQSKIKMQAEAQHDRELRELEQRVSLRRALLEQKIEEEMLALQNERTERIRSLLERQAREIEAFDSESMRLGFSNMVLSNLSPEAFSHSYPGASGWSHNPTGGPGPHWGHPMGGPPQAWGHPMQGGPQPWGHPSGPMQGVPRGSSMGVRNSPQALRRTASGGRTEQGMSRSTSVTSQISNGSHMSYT
# Chain of PKN2 (human) (Q16513 whole entry, looked up): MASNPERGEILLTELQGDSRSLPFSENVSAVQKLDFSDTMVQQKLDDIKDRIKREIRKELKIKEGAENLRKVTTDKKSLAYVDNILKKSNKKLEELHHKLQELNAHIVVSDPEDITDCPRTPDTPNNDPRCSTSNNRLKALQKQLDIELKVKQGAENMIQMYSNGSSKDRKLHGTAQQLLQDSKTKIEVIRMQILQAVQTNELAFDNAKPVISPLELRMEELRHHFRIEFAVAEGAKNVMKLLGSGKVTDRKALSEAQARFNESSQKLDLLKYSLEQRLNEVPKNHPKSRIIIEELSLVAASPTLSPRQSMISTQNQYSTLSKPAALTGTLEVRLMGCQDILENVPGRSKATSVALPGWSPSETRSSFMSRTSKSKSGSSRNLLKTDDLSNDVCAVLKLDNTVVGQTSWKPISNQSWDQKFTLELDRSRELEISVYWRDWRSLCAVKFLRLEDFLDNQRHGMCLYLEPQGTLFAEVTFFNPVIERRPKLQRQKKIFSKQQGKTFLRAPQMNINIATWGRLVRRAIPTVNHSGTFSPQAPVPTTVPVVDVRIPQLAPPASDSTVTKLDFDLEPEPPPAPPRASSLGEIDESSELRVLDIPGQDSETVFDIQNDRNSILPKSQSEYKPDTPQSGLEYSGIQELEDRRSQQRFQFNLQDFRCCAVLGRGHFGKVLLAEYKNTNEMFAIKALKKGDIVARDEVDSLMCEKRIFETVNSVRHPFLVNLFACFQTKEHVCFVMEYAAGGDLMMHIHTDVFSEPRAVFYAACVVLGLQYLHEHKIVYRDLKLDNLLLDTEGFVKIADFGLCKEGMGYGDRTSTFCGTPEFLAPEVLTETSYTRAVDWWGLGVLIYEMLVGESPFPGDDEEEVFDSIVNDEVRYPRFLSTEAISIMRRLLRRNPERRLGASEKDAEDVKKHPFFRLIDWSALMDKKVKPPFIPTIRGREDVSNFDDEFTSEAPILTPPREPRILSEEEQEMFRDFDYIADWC
# Chain of GSG2 (human) (Q8TF76 whole entry, looked up): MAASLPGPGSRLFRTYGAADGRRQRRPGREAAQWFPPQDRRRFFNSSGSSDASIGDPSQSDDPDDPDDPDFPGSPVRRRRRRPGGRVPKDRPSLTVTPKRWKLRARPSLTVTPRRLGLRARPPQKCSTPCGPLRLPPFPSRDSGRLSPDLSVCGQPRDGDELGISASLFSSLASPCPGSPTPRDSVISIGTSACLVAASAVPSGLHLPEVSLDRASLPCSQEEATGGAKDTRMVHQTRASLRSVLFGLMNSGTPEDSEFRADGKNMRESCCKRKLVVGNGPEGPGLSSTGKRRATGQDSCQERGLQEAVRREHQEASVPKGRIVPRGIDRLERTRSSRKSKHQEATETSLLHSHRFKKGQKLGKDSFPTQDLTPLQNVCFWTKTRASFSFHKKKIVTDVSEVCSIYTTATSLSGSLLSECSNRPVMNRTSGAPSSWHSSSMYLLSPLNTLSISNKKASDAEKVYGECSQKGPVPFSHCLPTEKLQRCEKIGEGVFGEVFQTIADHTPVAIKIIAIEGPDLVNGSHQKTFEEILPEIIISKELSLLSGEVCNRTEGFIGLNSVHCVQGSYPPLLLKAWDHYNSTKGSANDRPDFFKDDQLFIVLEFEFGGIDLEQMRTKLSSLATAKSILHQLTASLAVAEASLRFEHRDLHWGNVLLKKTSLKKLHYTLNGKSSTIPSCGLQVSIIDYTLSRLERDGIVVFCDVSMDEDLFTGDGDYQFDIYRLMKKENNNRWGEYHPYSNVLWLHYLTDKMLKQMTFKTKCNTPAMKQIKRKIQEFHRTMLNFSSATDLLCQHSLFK
# Chain of NLK (human) (Q9UBE8 whole entry, looked up): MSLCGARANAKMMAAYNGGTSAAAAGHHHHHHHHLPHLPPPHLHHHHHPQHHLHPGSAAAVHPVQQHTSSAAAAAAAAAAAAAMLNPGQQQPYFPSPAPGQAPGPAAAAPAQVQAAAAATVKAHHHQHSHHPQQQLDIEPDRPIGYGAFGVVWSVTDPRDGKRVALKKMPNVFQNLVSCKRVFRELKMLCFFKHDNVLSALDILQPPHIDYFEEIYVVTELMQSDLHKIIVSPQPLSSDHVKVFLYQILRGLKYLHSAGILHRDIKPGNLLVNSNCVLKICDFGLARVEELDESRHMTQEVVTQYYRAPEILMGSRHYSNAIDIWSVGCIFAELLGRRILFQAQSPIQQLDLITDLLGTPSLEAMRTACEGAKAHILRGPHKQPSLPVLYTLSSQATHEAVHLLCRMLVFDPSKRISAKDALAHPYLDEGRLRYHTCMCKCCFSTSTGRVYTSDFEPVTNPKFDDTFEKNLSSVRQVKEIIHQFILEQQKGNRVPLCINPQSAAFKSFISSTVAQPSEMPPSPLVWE
smiles,measurement,setting,value
O=C1Nc2cc(Br)ccc2/C1=C1/Nc2ccccc2/C1=N\O,residual activity,[1],74.4%
same,residual activity,[2],98.5%
same,residual activity,[3],98.7%
same,residual activity,[4],96.7%
same,residual activity,[5],104%
same,residual activity,[6],81.9%
same,residual activity,[7],88.5%
same,residual activity,[8],7.64%
same,residual activity,[9],100%
same,residual activity,[10],104%
same,residual activity,[11],82%
same,residual activity,[12],96.3%
same,residual activity,[13],96.2%
same,residual activity,[14],36.5%
same,residual activity,[15],43.1%
same,residual activity,[16],82.7%
same,residual activity,[17],47.8%
same,residual activity,[18],83%
same,residual activity,[19],97.7%
same,residual activity,[20],104%
same,residual activity,[21],98.5%
same,residual activity,[22],39%
same,residual activity,[23],69.4%
same,residual activity,[24],100%
same,residual activity,[25],64.2%
same,residual activity,[26],95.3%
same,residual activity,[27],75.1%
same,residual activity,[28],95.9%
same,residual activity,[29],96.1%
same,residual activity,[30],96.3%
same,residual activity,[31],75.9%
same,residual activity,[32],92.1%
same,residual activity,[33],3.6%
same,residual activity,[34],81.4%
same,residual activity,[35],41.8%
same,residual activity,[36],85.6%
same,residual activity,[37],107%
same,residual activity,[38],101%
same,residual activity,[39],84.5%
same,residual activity,[40],23.2%
same,residual activity,[41],103%
O=C1Cc2c([nH]c3ccc([N+](=O)[O-])cc23)-c2ccccc2N1,residual activity,[1],51%
same,residual activity,[2],94.8%
same,residual activity,[3],103%
same,residual activity,[4],99%
same,residual activity,[5],77.5%
same,residual activity,[6],97.8%
same,residual activity,[7],94.2%
same,residual activity,[8],39.7%
same,residual activity,[9],97%
same,residual activity,[10],99.3%
same,residual activity,[11],80.2%
same,residual activity,[12],89.2%
same,residual activity,[13],110%
same,residual activity,[14],15.9%
same,residual activity,[15],38%
same,residual activity,[16],92.7%
same,residual activity,[17],20.4%
same,residual activity,[18],74.7%
same,residual activity,[19],107%
same,residual activity,[20],137%
same,residual activity,[21],66.9%
same,residual activity,[22],81.2%
same,residual activity,[23],79.9%
same,residual activity,[24],109%
same,residual activity,[25],62.5%
same,residual activity,[26],93.9%
same,residual activity,[27],98.2%
same,residual activity,[28],106%
same,residual activity,[29],97%
same,residual activity,[30],99.3%
same,residual activity,[32],88.9%
same,residual activity,[33],0.971%
same,residual activity,[34],95%
same,residual activity,[35],9.22%
same,residual activity,[36],74.5%
same,residual activity,[37],91.4%
same,residual activity,[38],95.5%
same,residual activity,[39],68.5%
same,residual activity,[40],97.2%
same,residual activity,[41],76.2%
